# Test system: C6/36 Aedes albopictus cell line infected with Wolbachia pipientis (Wolbachia strain wAlbB)
# Assay: In vitro insect cell line assay (anti-Wolbachia screen, SYTO 11 high content imaging)
# Assay type: cell-based
# Details: 168 h; C6/36 Aedes albopictus cells infected with Wolbachia pipientis wAlbB, 7 days incubation, SYTO 11 imaging; read-out: In vitro anti-Wolbachia activity
# Experimental: A C6/36 Aedes albopictus cell line infected with Wolbachia pipientis (Wolbachia strain wAlbB) derived from Aa23 A. albopictus cell line (O'Neill et al., 1997; Insect Mol Biol; Turner et al., (2006) J. Immunol. 7:1240-1249) was used to screen compounds. Cells were cultured in Leibovitz's L15+L-glutamine supplemented with heat-inactivated Foetal Calf Serum (HI-FCS), non-essential amino acids and tryptose phosphate broth. Culture medium was filter-sterilized through a 0.2 μm filter and stored at 4° C. Compounds were provided as 10 mM stocks in DMSO, diluted to 50 μM working stock to give final concentration of 5 μM on the test plate. Concentrated stocks were frozen at −20° C.
# Prior to use in the screening assay, cell cultures were sub-passaged (6 days prior) to provide ˜90% confluent cells on Day 0 of screening assay. On Day 0 (assay set-up), the medium was removed from the stock culture flask and replaced with fresh medium. The cells were detached by scraping and cell density was calculated using an automated cell counter. The cells were then diluted at working density and aliquoted at 90 μl to each well of a Cell Carrier 384 well plate (Perkin Elmer). Cell plates were incubated at 26° C.
# Control solution (DMSO-medium) was dispensed at 10 μl per well for “untreated” wells. Test solution (Drug-DMSO) was also dispensed at 10 μl (from working plate) per well for “treated” wells. The plates were incubated at 26° C., inside plastic wallet in incubator, for 7 days.
# On Day 7, 25 μl of staining medium/dye (SYTO 11, Life Technologies) was added to each sample well and allowed to stain for 15 minutes in the dark. All the medium was removed from each sample well without disturbing the cells and replaced with 100 μl of fresh medium. Plates were imaged on the Operetta High Content Imaging system (Perkin Elmer) and analyzed using texture analysis through Harmony software (Perkin Elmer). The cell-based screen and analysis are described in detail in Clare et al. (2014) J Biomol Screen.
row,Compound,EC50
1,"COc1cc2c(NCc3cccnc3C(F)(F)F)nc(N3CCOCC3C)nc2nc1OC (centres unmarked) [Example 308, 6,7-dimethoxy-2-(3-methylmorphoIino)-N-((2-(trifluoromethyl)pyridin-3-yl)methyl)pyrido[2,3-d]pyrimidin-4-amine]",1000 to 100000 nM
2,"FC(F)(F)c1ccccc1CNc1nc(NC2COC2)nc2ncccc12 [Example 144, N^2-(oxetan-3-yl)-N^4-(2-(trifluoromethyl)benzyl)pyrido[2,3-d]pyrimidine-2,4-diamine]",10 to 100 nM
3,"FC(F)(F)c1ncccc1CNc1nc(N2CCOCC2C2CC2)nc2ncccc12 (centres unmarked) [Example 253, 2-(3-cyclopropylmorpholino)-N-((2-(trifluoromethyl)pyridin-3-yl)methyl)pyrido[2,3-d]pyrimidin-4-amine]",1 to 10 nM
4,"CN1CCN(c2nc(NCc3ccccc3C(F)(F)F)c3sccc3n2)CC1 [Example 95, 2-(4-methylpiperazin-1-yl)-N-(2-(trifluoromethyl)benzyl)thieno[3,2-d]pyrimidin-4-amine]",1000 to 100000 nM
5,FC1(F)CCN(Cc2nc(NCc3ccccc3C(F)(F)F)c3cccnc3n2)CC1 [Example 223],100 to 1000 nM
6,"CC(C)Nc1nc(Nc2ccccc2C(F)(F)F)c2sccc2n1 [Example 59, N^2-isopropyl-N^4-(2-(trifluoromethyl)phenyl)thieno[3,2-d]pyrimidin-2,4-amine]",100 to 1000 nM
7,"CN1CC(Nc2nc(NCc3cccnc3C(F)(F)F)c3cccnc3n2)C1 [Example 148, N^2-(1-methylazetidin-3-yl)-N^4-((2-(trifluoromethyl)pyridin-3-yl)methyl)pyrido[2,3-d]pyrimidine-2,4-diamine]",1000 to 100000 nM
8,"COc1ccccc1CNc1nc(NC(C)C)nc2ccsc12 [Example 132, N^2-isopropyl-N^4-(2-methoxybenzyl)thieno[3,2-d]pyrimidine-2,4-diamine]",1000 to 100000 nM
9,"FC1(F)CCN(Cc2nc(NCc3cccnc3C(F)(F)F)c3cccnc3n2)CC1 [Example 228, 2-((4,4-difluoropiperidin-1-yl)methyl)-N-((2-(trifluoromethyl)pyridin-3-yl)methyl)pyrido[2,3-d]pyrimidin-4-amine]",100 to 1000 nM
10,"CC(C)Nc1nc(N2CCOCC2c2ccccc2C(F)(F)F)c2cccnc2n1 (centres unmarked) [Example 187, N-isopropyl-4-(3-(2-(trifluoromethyl)phenyl)morpholino)pyrido[2,3-d]pyrimidin-2-amine]",1000 to 100000 nM
11,Cc1ccc(-c2cnc3ncnc(NCc4cccnc4C(F)(F)F)c3c2)cn1 [Example 181],1000 to 100000 nM
12,"FC(F)O[C@H]1CCN(c2nc(NCc3cccnc3C(F)(F)F)c3cccnc3n2)C1 [Example 281, (S)-2-(3-(difluoromethoxy)pyrrolidin-1-yl)-N-((2-(trifluoromethyl)pyridin-3-yl)methyl)pyrido[2,3-d]pyrimidin-4-amine]",0.01 to 1 nM
13,"FC(F)(F)Oc1ccccc1CNc1ncnc2ccsc12 [Example 24, N-(2-(trifluoromethoxy)benzyl)thieno[3,2-d]pyrimidin-4-amine]",100 to 1000 nM
14,"FC1CCN(c2nc(NCc3cccnc3C(F)(F)F)c3cccnc3n2)CC1 [Example 195, 2-(4-fluoropiperidin-1-yl)-N-((2-(trifluoromethyl)pyridin-3-yl)methyl)pyrido[2,3-d]pyrimidin-4-amine]",1 to 10 nM
15,"FC1(F)CCN(c2nc(N3CCC3c3cccnc3C(F)(F)F)c3cccnc3n2)CC1 (centres unmarked) [Example 218, 2-(4,4-difluoropiperidin-1-yl)-4-(2-(2-(trifluoromethyl)pyridin-3-yl)azetidin-1-yl)pyrido[2,3-d]pyrimidine]",0.01 to 1 nM
16,"COc1cccc(CNc2nc(NC(C)C)nc3ccsc23)c1 [Example 16, N^2-isopropyl-N^4-(3-methoxybenzyl)thieno[3,2-d]pyrimidine-2,4-diamine]",1000 to 100000 nM
17,"FC(F)(F)c1ncccc1CNc1nc(NC2CNC2)nc2ncccc12 [Example 147, N^2-(azetidin-3-yl)-N^4-((2-(trifluoromethyl)pyridin-3-yl)methyl)pyrido[2,3-d]pyrimidine-2,4-diamine]",1000 to 100000 nM
18,"CC(Nc1nc(Cl)nc2ccsc12)c1ccccc1C(F)(F)F (centres unmarked) [Example 52, 2-chloro-N-(1-(2-(trifluoromethyl)phenyl)ethyl)thieno[3,2-d]pyrimidin-4-amine]",10 to 100 nM
19,CC(C)(C)Nc1ncnc2ccsc12 [Example 78],1000 to 100000 nM

row,Compound,EC50
1,N#Cc1nc(NCc2ccccc2C(F)(F)F)c2sccc2n1 [Example 80],10 to 100 nM
2,"COc1ccc(CNc2nc(NC(C)C)nc3ccsc23)cc1 [Example 131, N^2-isopropyl-N^4-(4-methoxybenzyl)thieno[3,2-d]pyrimidine-2,4-diamine]",1000 to 100000 nM
3,"FC(F)(F)c1ncccc1CNc1nc(N2CC(C(F)(F)F)C2)nc2ncccc12 [Example 202, 2-(3-(trifluoromethyl)azetidin-1-yl)-N-((2-(trifluoromethyl)pyridin-3-yl)methyl)pyrido[2,3-d]pyrimidin-4-amine]",1 to 10 nM
4,"C[C@@H]1COCCN1c1nc(N2CCC2c2cccnc2C(F)(F)F)c2cccnc2n1 (stereo partly drawn) [Example 288, (3R)-3-methyl-4-(4-(2-(2-(trifluoromethyl)pyridin-3-yl)azetidin-1-yl)pyrido[2,3-d]pyrimidin-2-yl)morpholine]",1 to 10 nM
5,CC(C)Nc1nc(NCc2ccccc2F)c2sccc2n1 [Example 11],100 to 1000 nM
6,"FC(F)C1CN(c2nc(NCc3cccnc3C(F)(F)F)c3cccnc3n2)C1 [Example 274, 2-(3-(difluoromethyl)azetidin-1-yl)-N-((2-(trifluoromethyl)pyridin-3-yl)methyl)pyrido[2,3-d]pyrimidin-4-amine]",1 to 10 nM
7,"C[C@H]1COCCN1c1nc(N2CCC2c2ccccc2C(F)(F)F)c2cccnc2n1 (stereo partly drawn) [Example 291, (3S)-3-methyl-4-(4-(2-(2-(trifluoromethyl)phenyl)azetidin-1-yl)pyrido[2,3-d]pyrimidin-2-yl)morpholine]",0.01 to 1 nM
8,"FC(F)C1CN(c2nc(NCc3ccccc3C(F)(F)F)c3cccnc3n2)C1 [Example 276, 2-(3-(difluoromethyl)azetidin-1-yl)-N-(2-(trifluoromethyl)benzyl)pyrido[2,3-d]pyrimidin-4-amine]",< 0.01 nM
9,"CC(Nc1ncnc2c(C#N)csc12)c1ccccc1C(F)(F)F (centres unmarked) [Example 108, 4-((1-(2-(trifluoromethyl)phenyl)ethyl)amino)thieno[3,2-d]pyrimidine-7-carbonitrile]",1000 to 100000 nM
10,"FC1(F)CC2(CCN(c3nc(NCc4ccccc4C(F)(F)F)c4cccnc4n3)CC2)C1 [Example 260, 2-(2,2-difluoro-7-azaspiro[3.5]nonan-7-yl)-N-(2-(trifluoromethyl)benzyl)pyrido[2,3-d]pyrimidin-4-amine]",1 to 10 nM
11,"C[C@@H]1COCCN1c1nc(NCc2ccccc2C(F)(F)F)c2cccnc2n1 [Example 209, (R)-2-(3-methylmorpholino)-N-(2-(trifluoromethyl)benzyl)pyrido[2,3-d]pyrimidin-4-amine]",10 to 100 nM
12,"FC(F)(F)c1ncccc1CNc1nc(N2CCOC(C3CC3)C2)nc2ncccc12 (centres unmarked) [Example 278, 2-(2-cyclopropylmorpholino)-N-((2-(trifluoromethyl)pyridin-3-yl)methyl)pyrido[2,3-d]pyrimidin-4-amine]",0.01 to 1 nM
13,"N#CC1CN(c2nc(NCc3ccccc3C(F)(F)F)c3cccnc3n2)C1 [Example 245, 1-(4-((2-(trifluoromethyl)benzyl)amino)pyrido[2,3-d]pyrimidin-2-yl)azetidine-3-carbonitrile]",1 to 10 nM
14,"FC(F)(F)c1ccccc1CNc1nc(N2CCOCC2)nc2ccsc12 [Example 94, 2-morpholino-N-(2-(trifluoromethyl)benzyl)thieno[3,2-d]pyrimidin-4-amine]",1000 to 100000 nM
15,"CN(Cc1ccccc1C(F)(F)F)c1nc(Cl)nc2ccsc12 [Example 49, 2-chloro-N-methyl-N-(2-(trifluoromethyl)benzyl)thieno[3,2-d]pyrimidin-4-amine]",1 to 10 nM
16,"N#CC1CN(c2nc(NCc3cccnc3C(F)(F)F)c3cccnc3n2)C1 [Example 237, 1-(4-(((2-(trifluoromethyl)pyridin-3-yl)methyl)amino)pyrido[2,3-d]pyrimidin-2-yl)azetidine-3-carbonitrile]",100 to 1000 nM
17,CC1COCCN1Cc1nc(NCc2ccccc2C(F)(F)F)c2cccnc2n1 (centres unmarked) [Example 224],1000 to 100000 nM
18,"Cc1nc(N(C)C(C)c2ccccc2C(F)(F)F)c2sc(C)cc2n1 (centres unmarked) [Example 69, N,2,6-trimethyl-N-(1-(2-(trifluoromethyl)phenyl)ethyl)thieno[3,2-d]pyrimidin-4-amine]",1000 to 100000 nM

# Same assay, conditions: C6/36 Aedes albopictus cells infected with Wolbachia pipientis wAlbB, 7 days incubation, SYTO 11 imaging; read-out: In vitro anti-Wolbachia activity
row,Compound,EC50
1,"2-((3,3-difluoropyrrolidin-1-yl)methyl)-N-((2-(trifluoromethyl)pyridin-3-yl)methyl)pyrido[2,3-d]pyrimidin-4-amine [Example 225]",1000 to 100000 nM
